Measured values taken from article PMC3428805 (Journal of Medicinal Chemistry, 2012).
Like-named read-outs stand apart in the source and are kept apart here.

What was measured:
K562 cells = assay: cells; type: cell-based; conditions: Homo sapiens, K562, 72 h
[1] = Human plasma protein binding, equilibrium dialysis; conditions: 50%
[2] = log P and pKa, potentiometric method
[3] = Human hepatocyte stability; conditions: cryopreserved hepatocytes, 3 µM
[4] = Mouse microsomal stability; conditions: mouse microsomes, 3 µM
[5] = Human microsomal stability; conditions: human microsomes, 3 µM
[6] = Evaluation of acid stability at pH = 1 by LC-HRMS; type: physicochemical; conditions: for hydrolysis / decomposition at pH 1.0: pH 1.0, in words
Eg5 = biological target: T1, Eg5 (Homo sapiens, UniProt P52732)
T1 sequence (P52732 1-368): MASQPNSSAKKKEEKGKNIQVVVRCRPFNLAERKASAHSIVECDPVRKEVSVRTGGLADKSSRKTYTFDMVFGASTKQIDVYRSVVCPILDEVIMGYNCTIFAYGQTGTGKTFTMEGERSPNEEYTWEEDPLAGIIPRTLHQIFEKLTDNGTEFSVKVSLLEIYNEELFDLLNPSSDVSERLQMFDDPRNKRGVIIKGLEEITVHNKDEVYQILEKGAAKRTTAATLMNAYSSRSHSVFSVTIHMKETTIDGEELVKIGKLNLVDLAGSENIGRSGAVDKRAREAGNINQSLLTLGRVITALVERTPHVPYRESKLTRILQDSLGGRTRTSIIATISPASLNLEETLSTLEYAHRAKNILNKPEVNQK

[7] = Parallel artificial membrane permeability assay; type: in vitro ADME; conditions: passive permeability
log D7.4 = conditions: n-octanol/buffer, pH 7.4
[8] = calculated from Ki^app of basal ATPase inhibition

Cc1ccc(C(CCC(N)C(=O)O)(c2ccccc2)c2ccccc2)cc1 (racemic) [rac-32, 2-Amino-5,5-diphenyl-5-(4-methylphenyl)pentanoic acid]
GI50 (K562 cells; read-out: K562 cells, GI50, 72 h, Alamar blue): 98 ± 5 nM

Cc1cccc(C(CC[C@@H](N)C(=O)O)(c2ccccc2)c2ccccc2)c1 [(R)-29]
recovery at 5 µM [1]: 50.1% | pKa ([2]; pKa 1): 9.07 | pKa ([2]; pKa 2): 2.55 | human hepatocytes, intrinsic clearance [3]: stable | GI50 (K562 cells; read-out: K562 cells, GI50): 91 ± 9 nM | microsomal stability, Clint, mice [4]: stable | microsomal stability, Clint, human [5]: stable

Cc1cccc(C(CC[C@H](N)C(=O)O)(c2ccccc2)c2ccccc2)c1 [(S)-29]
recovery at 5 µM [1]: 52.3% | pKa ([2]; pKa 1): 9.07 | pKa ([2]; pKa 2): 2.55 | human hepatocytes, intrinsic clearance [3]: stable | GI50 (K562 cells; read-out: K562 cells, GI50): 128 ± 15 nM | microsomal stability, Clint, mice [4]: stable | microsomal stability, Clint, human [5]: stable

N[C@@H](CSC(c1ccccc1)(c1ccccc1)c1ccccc1)C(=O)O [compound 1, S-trityl-L-cysteine, reference compound]
t1/2, acid stability ([6]; pH 1.0, 0-24 h, LC-HRMS): stable

NCCSC(c1ccccc1)(c1ccccc1)c1ccccc1 [compound 2, 2-(Tritylsulfanyl)ethanamine]
ligand efficiency (Eg5): 0.39

NCCOC(c1ccccc1)(c1ccccc1)c1ccccc1 [compound 6, 2-(Trityloxy)ethanamine]
hydrolysis / decomposition at pH 1.0 [6]: decomposed after 16 h

N[C@@H](CNC(c1ccccc1)(c1ccccc1)c1ccccc1)C(=O)O [compound 7, (2 S)-2-Amino-3-(tritylamino)propanoic acid]
hydrolysis / decomposition at pH 1.0 [6]: completely hydrolyzed

NCCNC(c1ccccc1)(c1ccccc1)c1ccccc1 [compound 8, N-Tritylethane-1,2-diamine]
hydrolysis / decomposition at pH 1.0 [6]: completely hydrolyzed | ligand efficiency (Eg5): 0.33

NCCCC(c1ccccc1)(c1ccccc1)c1ccccc1 [compound 10, 4,4,4-Triphenylbutan-1-amine]
stability at pH 1.0 ([6]; 5 days at pH 1.0): stable

NCCSC(c1ccccc1)(c1ccccc1)c1cccc(F)c1 [compound 12, 2-(((3-Fluorophenyl)(diphenyl)methyl)sulfanyl)ethanamine]
ligand efficiency (Eg5; [8]): 0.36

N[C@@H](CSC(c1ccccc1)(c1ccccc1)c1cccc(Cl)c1)C(=O)O [compound 13, (2 R)-2-Amino-3-(((3-chloroxyphenyl)(diphenyl)methyl)sulfanyl)propanoic acid]
ligand efficiency (Eg5; [8]): 0.36

NCCSC(c1ccccc1)(c1ccccc1)c1cccc(Cl)c1 [compound 14, 2-(((3-Chlorophenyl)(diphenyl)methyl)sulfanyl)ethanamine]
ligand efficiency (Eg5; [8]): 0.37

COc1cccc(C(SCCN)(c2ccccc2)c2ccccc2)c1 [compound 21, 2-(((3-Methoxyphenyl)(diphenyl)methyl)sulfanyl)ethanamine]
ligand efficiency (Eg5; [8]): 0.37

N[C@@H](CSC(c1ccccc1)(c1ccccc1)c1cccc(O)c1)C(=O)O [compound 35, (2 R)-2-Amino-3-(((3-hydroxyphenyl)(diphenyl)methyl)sulfanyl)propanoic acid]
PAMPA Papp [7]: no permeability recorded

NC(=O)c1cccc(C(SC[C@H](N)C(=O)O)(c2ccccc2)c2ccccc2)c1 [compound 41, (R)-2-amino-3-(((3-carbamoylphenyl)diphenylmethyl)sulfanyl)propanoic acid]
PAMPA Papp [7]: no membrane diffusion detected | logD (log D7.4): 1.13

Cc1ccc(C(=O)N(CCCN)[C@@H](c2nc3cc(Cl)ccc3c(=O)n2Cc2ccccc2)C(C)C)cc1 [compound 54, ispinesib, reference compound]
recovery at 5 µM [1]: 50.6% | microsomal stability, Clint, mice [4]: stable | microsomal stability, Clint, human [5]: stable
